Data taken from US7700559B2, “Gonadotropin releasing hormone analogues conjugates with steroid hormones” (Medical Research Council, priority 2003, dated 2010).
pEC50, pIC50: −log10 of the molar value.

Key:
[1] = target: progesterone binding globulin (PBG); assay: Plasma protein binding assay, competition with [3H]progesterone in pregnant guinea pig plasma; conditions: read-out: IC50, inhibition of [3H]progesterone binding to PBG
Protocol: (§1) Plasma Protein Binding Assay
(§2) Plasma protein binding was determined by the competitive binding of steroid conjugates, in the presence of [1,2,6,7-^3H]progesterone or [^3H]cortisol, to pregnant guinea pig plasma or human pregnant serum respectively. 20 μl serum was diluted with 2 ml dextran-coated charcoal solution (0.25 g dextran T-70, 2.5 g charcoal decolorizing powder, activated acid washed [Merck Ltd., Lutterworth, Leicestershire] in 500 ml PBS) and incubated at room temperature. After 30 mins the suspension was centrifuged at 3000×g for 10 minutes, the supernatant was removed and the pellet was discarded. 100 μl of diluted serum was aliquoted into centrifuge tubes, followed by 1 pmol[^3H]steroid/100 μl PBS. 100 μl PBS (total binding) or 200 pmol/100 μl unlabelled competing ligand ([…]) was added to diluted serum in duplicate. Tubes were vortexed and incubated at room temperature for 1 hour, then for an additional 15 minutes on ice. A further 750 μl dextran-coated charcoal suspension was added and incubated for 10 minutes on ice, followed by centrifugation at 4° C. for 5 minutes. The supernatant fluid was counted.

[2] = In vivo male rabbit study, disappearance of iodinated analogue from whole blood; conditions: iodinated compound i.v. into ear vein, male rabbit, whole blood
Protocol: In Vivo Studies in the Male Rabbit
To determine biological half-life of GnRH agonist-progesterone conjugates, 0.5 ml saline containing approximately 10,000,000 cpm of iodinated [D-Ala^6]GnRH or [D-Lys^6]GnRH-progesterone conjugate was injected as an i.v. bolus into the ear vein of a male rabbit. Rabbits were sedated with 0.4 ml Aceprom 10 (Milborrow Animal Health, Republic of South Africa) injected intramuscularly 3-4 minutes before start of experiment. A repeat injection was carried out after 2 hours. 1 ml blood samples were collected in heparinized tubes from an indwelling cannula placed in a vein of the contralateral ear. Whole blood was counted directly to determine disappearance from circulation. All experiments were carried out in accordance with Republic of South Africa regulations.

[3] = target: T1, type I human GnRH receptor (Homo sapiens, UniProt P30968); assay: Membrane binding assay of GnRH agonist-progesterone conjugate, COS-1 cells transfected with hGnRH-R, 125I[His5,D-Tyr6]GnRH; conditions: n=1, data not shown, read-out: ED50, binding to type I human GnRH receptor
T1 construct: expressed in transfected cells; host or cells: COS-1 cells (membranes)
T1 sequence (P30968 1-328): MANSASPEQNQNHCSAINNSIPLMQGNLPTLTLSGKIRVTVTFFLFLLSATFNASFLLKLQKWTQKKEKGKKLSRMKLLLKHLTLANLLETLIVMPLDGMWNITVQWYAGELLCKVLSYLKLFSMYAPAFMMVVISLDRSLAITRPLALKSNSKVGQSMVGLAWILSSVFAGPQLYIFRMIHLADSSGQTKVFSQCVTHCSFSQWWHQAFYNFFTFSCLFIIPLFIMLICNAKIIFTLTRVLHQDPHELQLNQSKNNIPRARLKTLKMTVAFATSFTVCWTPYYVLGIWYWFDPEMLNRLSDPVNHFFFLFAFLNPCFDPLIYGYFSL
Protocol: Membrane binding assay of GnRH agonist-progesterone conjugates was carried out on COS-1 cells transfected with hGnRH-R. COS-1 cells in 100 mm dishes were washed twice in HEPES modified DMEM and transfected with 15 μg DNA in filter-sterilised DEAE dextran with HEPES buffered saline, penicillin/streptomycin and DMEM. After five hours incubation at 37° C., the media was removed and replaced with DMEM containing penicillin/streptomycin, 2% FCS and 2% chloroquine 10 mM and plates were incubated for a further one hour. The media was aspirated, cells were washed and normal media was added until assay 24 hours later.
Membrane Binding Assay of GnRH agonist-Progesterone Conjugate:
Transfected COS-1 cells were washed in PBS, removed from plates and centrifuged at 1500 rpm for five mins to pellet cells. The PBS was aspirated and the cells were resuspended in homogenization buffer (20 mM Tris, 2 mM MgCl2, pH 7.2), vortexed and left on ice for 10 minutes. The cell suspension was transferred to a 7 ml homogeniser (Jencons (Scientific) Ltd., Leighton Buzzard, Buckinghamshire) and plunged 15 times with a loose plunger and 15 times with a tight plunger. The homogenized cells were then centrifuged at 4° C. for 10 mins at top speed and the supernatant was removed with a vacuum pump. […] Filters were then counted immediately on a gamma counter.

rat type I GnRHR = target: T2, rat type I GnRHR (Rattus norvegicus, UniProt P30969); assay: Total inositol phosphate production in HEK293 cells stably expressing rat type I GnRHR; format: cell-based; conditions: n=2, read-out: EC50, stimulation of inositol phosphate production
T2 construct: expressed in transfected cells
T2 sequence (P30969 1-327): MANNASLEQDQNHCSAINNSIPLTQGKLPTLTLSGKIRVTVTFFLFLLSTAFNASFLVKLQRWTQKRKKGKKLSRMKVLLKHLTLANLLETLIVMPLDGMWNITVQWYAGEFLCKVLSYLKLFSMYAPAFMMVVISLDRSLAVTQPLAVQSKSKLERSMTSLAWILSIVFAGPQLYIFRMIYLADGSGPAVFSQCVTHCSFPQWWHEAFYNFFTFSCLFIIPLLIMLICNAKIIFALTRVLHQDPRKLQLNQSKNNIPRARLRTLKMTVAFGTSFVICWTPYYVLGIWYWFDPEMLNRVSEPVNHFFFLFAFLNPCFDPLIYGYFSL
Protocol: A HEK293 stable cell line expressing the rat type I GnRHR developed in our laboratory was used for the inositol phosphate production assays. This cell line was maintained in DMEM containing 10% fetal calf serum, glutamine and penicillin/streptomycin with the addition of G418 at 500 μg/ml throughout culture. Where required, plates were coated with Poly-L-Lysine to enhance adherence to plasticware during assay.
Measurement of Total Inositol Phosphate Production
Rat type I GnRH receptive expressing HEK293 cells were plated out onto 12 well plates and incubated at 37° C., 5% CO2 for 24 hours, then incubated in special DMEM containing 1% dialysed FCS (with glutamine and penicillin/streptomycin) and 1 μl/well of myo-[2-^3H]inositol for a further 48 hours. After aspiration of media and washing with incubation buffer, a further 500 μl buffer containing 10 mM LiCl was added to the plates and then incubated at 37° C. for 30 mins. 1 μM agonist was added to each well to a final concentration of 0.1 μM and the plates were incubated under the same conditions for a further 1 hour. The reaction was terminated with 500 μl 10 mM formic acid, incubated at 4° C. for 30 mins. […] After addition of formic acid, ammonium formate (1 ml, 0.1M, 1M) and vortexing, 800 μl of the supernatant was counted with scintillation fluid.

[4] = target: T3, cortisol binding globulin (CBG) (Homo sapiens, UniProt P08185); assay: Plasma protein binding assay, competition with [3H]cortisol in human pregnant serum; conditions: data not shown, read-out: IC50, prevention of [3H]cortisol binding
T3 construct: from tissue; host or cells: human pregnant serum (charcoal-stripped, diluted)
T3 sequence (P08185 23-405): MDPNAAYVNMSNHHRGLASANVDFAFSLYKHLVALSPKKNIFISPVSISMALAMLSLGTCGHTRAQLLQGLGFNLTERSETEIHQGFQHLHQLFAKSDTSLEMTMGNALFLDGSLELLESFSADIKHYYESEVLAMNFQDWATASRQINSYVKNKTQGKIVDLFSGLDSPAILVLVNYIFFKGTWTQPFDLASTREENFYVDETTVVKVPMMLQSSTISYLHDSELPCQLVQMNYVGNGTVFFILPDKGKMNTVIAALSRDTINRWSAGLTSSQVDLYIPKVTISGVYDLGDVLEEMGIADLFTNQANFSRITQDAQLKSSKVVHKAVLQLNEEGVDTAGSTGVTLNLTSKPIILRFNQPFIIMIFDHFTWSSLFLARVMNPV
Protocol: as §1, §2

## CC(=O)[C@H]1CC[C@H]2[C@@H]3CCC4=CC(=O)CC[C@]4(C)[C@H]3[C@H](OC(=O)CCC(=O)NCCCC[C@@H](NC(=O)[C@H](Cc3ccc(O)cc3)NC(=O)[C@H](CO)NC(=O)[C@H](Cc3c[nH]c4ccccc34)NC(=O)[C@H](Cc3c[nH]cn3)NC(=O)[C@@H]3CCC(=O)N3)C(=O)N[C@@H](CC(C)C)C(=O)N[C@@H](CCCNC(=N)N)C(=O)N3CCC[C@H]3C(=O)NCC(N)=O)C[C@]12C [GnRH agonist-progesterone conjugate, [DLys^6]GnRH conjugated to 11α-hydroxyprogesterone 11-succinate at the ε amine group of the D-Lys at position 6]
[1]
  pIC50: 9.54
[2]
  second phase half-life (metabolism and renal clearance): 53 ± 13 min
[3]
  pEC50: 9.54
Rat type I GnRHR
  pEC50: 9.28
[4]
  pIC50: 5.92
